Experimental data published in patent US4497803A, “Inclusion compound of lankacidin-group antibiotic and use thereof” (priority 1982, dated 1985).
≈ marks a conversion by molar mass, not a printed value. Like-named read-outs stand apart in the source and are kept apart here.

Experiments:
[1] = Solubility of lankacidin-group in β-CD solution (10^-2 Mol/l), shaken 30 minutes to one hour (Example 4); type: physicochemical
Description: (§1) Powdery lankacidin C was added to an aqueous solution of cyclodextrin (hereinafter referred to as "CD") to have 4 mg/ml of the lankacidin C contained. After the mixture was stirred with a mixer, it was shaken at 5° C. for 2 hours, and passed through filter paper. The absorbancy of the filtrate was measured at 227-229 nm to determine concentration of the lankacidin C.
The solubility of lankacidin-group in a solution of β-CD (10^-2 Mol/l) were measured in the same manner as that of Example 1 except that the shaking was continued for 30 minutes to one hour.

[2] = Solubility of inclusion compound in water; type: physicochemical
Description: The lankacidin-group is added to each of solutions containing various amounts of cyclodextrin. The minimum concentration of cyclodextrin which dissolves the maximum amount of the lankacidin-group compound and practical concentrations thereof are determined on the basis of amounts of the lankacidin-group compound dissolved in the cyclodextrin solutions. Then, the molar ratio of cyclodextrin to lankacidin-group compound is calculated by the following equation:
Molar ratio=[Molarity of cyclodextrin]:[(Saturation molarity of lankacidin-group compound in a certain concentration of cyclodextrin-solution)-(saturation molarity of lankacidin-group compound in an aqueous solution)].
Moreover, a large amount of the present inclusion compound is dissolved in water and it is kept stably therein. Solubility of the inclusion compound in water is greater than that of landacidin-group compounds in water, when the amount of the inclusion compound dissolved is calculated in terms of lankacidin-group compound, and than saturation concentration of cyclodextrin in water so far as cyclodextrin contained in the inclusion compound is concerned (Table 2).
(1) Solubility of lankacidingroup in water.
(2) Solubility of lankacidingroup in M/100 cyclodextrin solution.
(3) Concentration of cyclodextrin of (2).
(4) Solubility (maximum) of the present inclusion compound (calculated in
terms of lankacidingroup contained) in water.
(5) Concentration of cyclodextrin contained in the inclusion compound of […]

[3] = system: St. aureus 209P; assay: Stability of inclusion compound of lankacidin-group (24° C., for 6 days): antibacterial activity by paper disk assay; type: cell-based; settings: methanol, 1000 μg/ml
Description: The inclusion compound of the present invention is stable in an aqueous solution, although it splits into lankacidin-group moiety and cyclodextrins moiety, when it is in the form of solution or powder, by contacting it with organic solvents (e.g., ethyl acetate, methyl isobutyl ketone) or various carriers (e.g., silica gel, high-porous resins). […] In comparing the antibacterial activity, concentrations of the inclusion compound are calculated in terms of lankacidin-group compound from which the inclusion compound is prepared.
Stability of inclusion compound of lankacidin-group
*1 Paper disk assay using Trypticase soy agar (Baltimore Biologicals Ltd.
U.S.A.) as test culture media.
*2 1000 μg/ml, Lankacidingroup is stable in methanol.
*3 Aqueous solution of the inclusion compound with cyclodextrin (1000
μg/ml calculated in terms of lankacidingroup)

[4] = Solubility in β-CD solution, shaken 16 hours (Example 3); type: physicochemical
Description: as §1
The solubilities of lankacidin A, lankacidin C and lankacidinol in a β-CD solution were measured in the same manner as that of Example 1 except that the shaking was continued for 16 hours.

[5] = aqueous β-cyclodextrin solution
[6] = aqueous β-cyclodextrin solution, β-CD 10^-2 Mol/l, read-out: Solubility
[7] = β-CD 0 Mol/l (water), read-out: Solubility

CC(=O)OC1C=CC(C)=CC(NC(=O)C(C)OC(C)=O)C2(C)C(=O)OC(CC(OC(C)=O)C=CC(C)=CC1)C(C)C2=O (stereo not drawn) [Lankacidinol 2',8,14-triacetate]
ratio: Solubility in a 10^-2 Mol/l solution of CD/solubility in water [1]: 9.0
solubility [1, 5]: 332 µg/mL (≈ 565 µM)
solubility ([1]; water): 36.9 µg/mL (≈ 62.8 µM)

CC(=O)OC1C=CC(C)=CC(NC(=O)C(C)O)C2(C)C(=O)OC(CC(OC(C)=O)C=CC(C)=CC1)C(C)C2=O (stereo not drawn) [Lankacidinol 8,14-diacetate]
solubility [1, 6]: 1780 µg/mL (≈ 3260 µM)
solubility [1, 7]: 440 µg/mL (≈ 806 µM)
ratio: Solubility in a 10^-2 Mol/l solution of CD/solubility in water ([1]; β-CD 10^-2 Mol/l vs water): 4.05

CC(=O)OC1C=CC(C)=CCC(O)C=CC(C)=CC(NC(=O)C(C)O)C2(C)C(=O)OC(C1)C(C)C2=O (stereo not drawn) [Lankacidinol A, lankacidinol A]
solubility [1, 6]: 3070 µg/mL (≈ 6100 µM)
solubility [1, 7]: 170 µg/mL (≈ 338 µM)
ratio: Solubility in a 10^-2 Mol/l solution of CD/solubility in water ([1]; β-CD 10^-2 Mol/l vs water): 18.1

CC1=CCC(O)C=CC(C)=CC(NC(=O)C(C)O)C2(C)C(=O)OC(CC(O)C=C1)C(C)C2=O (stereo not drawn) [Lankacidinol, lankacidinol]
solubility ([2]; m/100 cyclodextrin solution, M/100 cyclodextrin, (3) cyclodextrin 11.3 mg/ml, read-out: (2) Solubility of lankacidin-group in M/100 cyclodextrin solution): 3780 µg/mL (≈ 8190 µM)
solubility ([2]; water, read-out: (1) Solubility of lankacidin-group in water): 655 µg/mL (≈ 1420 µM)
Antibacterial activity, inhibition diameter ([3]; 0 day): 25.75 mm
Antibacterial activity, inhibition diameter ([3]; 3 days at 24° C.): 27.0 mm
Antibacterial activity, inhibition diameter ([3]; 6 days at 24° C.): 30.0 mm
solubility at 16 h ([4]; aqueous β-cd solution, β-CD 2 × 10^-3 Mol/l): 1360 µg/mL (≈ 2950 µM)
solubility at 16 h ([4]; aqueous β-cd solution, β-CD 5 × 10^-3 Mol/l): 2130 µg/mL (≈ 4610 µM)
solubility at 16 h ([4]; aqueous β-cd solution, β-CD 10^-2 Mol/l): 2750 µg/mL (≈ 5960 µM)
solubility at 16 h ([4]; aqueous β-cd solution, β-CD 10^-3 Mol/l): 914 µg/mL (≈ 1980 µM)
Solubility in β-CD solution as function of β-CD concentration ([4]; from the vicinity of 10^-3 Mol/l of β-CD): increase in proportion to the concentration of β-CD
solubility at 16 h ([4]; water, β-CD 0 Mol/l): 444 µg/mL (≈ 962 µM)

CC1=CCC(O)C=CC(C)=CC(NC(=O)C(C)O)C(C)C(=O)C(C)=CCC(O)C=C1 (stereo not drawn) [Lankacyclinol, lankacyclinol]
ratio: Solubility in a 10^-2 Mol/l solution of CD/solubility in water [1]: 4.38
solubility [1, 5]: 3610 µg/mL (≈ 8650 µM)
solubility ([1]; water): 824 µg/mL (≈ 1970 µM)

OC[C@H]1O[C@@H]2O[C@H]3[C@H](O)[C@@H](O)[C@@H](O[C@H]4[C@H](O)[C@@H](O)[C@@H](O[C@H]5[C@H](O)[C@@H](O)[C@@H](O[C@H]6[C@H](O)[C@@H](O)[C@@H](O[C@H]7[C@H](O)[C@@H](O)[C@@H](O[C@H]8[C@H](O)[C@@H](O)[C@@H](O[C@H]1[C@H](O)[C@H]2O)O[C@@H]8CO)O[C@@H]7CO)O[C@@H]6CO)O[C@@H]5CO)O[C@@H]4CO)O[C@@H]3CO [cyclodextrin, β-cyclodextrin]
Concentration of cyclodextrin in its saturated aqueous solution ([2]; water): 1000 µg/mL

Iso-lankacidinol
solubility ([1]; β-CD 0 Mol/l (water)): 796 µg/mL
solubility ([1]; β-CD 10^-2 Mol/l): 3200 µg/mL
ratio: Solubility in a 10^-2 Mol/l solution of CD/solubility in water ([1]; β-CD 10^-2 Mol/l vs water): 4.02
